For assay [1], the target named is T1, beta-catenin/TCF4 engagement (Homo sapiens, UniProt P35222).
T1 construct: expressed in transfected cells; host or cells: HEK293
T1 sequence (P35222 1-781): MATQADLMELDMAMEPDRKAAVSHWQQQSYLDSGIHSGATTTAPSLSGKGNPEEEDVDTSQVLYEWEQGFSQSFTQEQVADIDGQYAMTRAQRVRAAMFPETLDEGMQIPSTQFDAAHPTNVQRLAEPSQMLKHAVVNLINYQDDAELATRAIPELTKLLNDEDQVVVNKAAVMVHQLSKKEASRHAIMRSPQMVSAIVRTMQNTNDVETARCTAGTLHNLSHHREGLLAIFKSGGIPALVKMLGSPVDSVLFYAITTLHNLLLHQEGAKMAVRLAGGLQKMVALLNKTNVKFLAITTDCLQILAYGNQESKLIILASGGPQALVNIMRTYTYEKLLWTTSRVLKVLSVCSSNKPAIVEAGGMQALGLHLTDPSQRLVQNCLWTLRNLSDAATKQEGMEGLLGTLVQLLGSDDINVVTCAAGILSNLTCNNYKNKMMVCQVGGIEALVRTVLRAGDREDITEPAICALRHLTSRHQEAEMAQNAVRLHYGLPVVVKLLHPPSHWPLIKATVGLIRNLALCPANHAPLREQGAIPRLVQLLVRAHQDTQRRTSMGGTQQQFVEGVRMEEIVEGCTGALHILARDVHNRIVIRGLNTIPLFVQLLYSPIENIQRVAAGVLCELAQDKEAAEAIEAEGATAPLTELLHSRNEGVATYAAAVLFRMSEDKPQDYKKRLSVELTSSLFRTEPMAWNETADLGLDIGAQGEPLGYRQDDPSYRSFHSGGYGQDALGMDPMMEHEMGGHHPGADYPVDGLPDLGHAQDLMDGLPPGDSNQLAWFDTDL
Nature of the assay: Nano-BRET target engagement assay (B-cat-Halo & TCF4-Luc in HEK293 cells). It is filed as cell-based. The settings on record: read-out: NanoBRET Abs IC50. For orientation: In BRET a luciferase serves as donor, and the signal depends on an acceptor being close.

Assay [2] has as its target T2, full-length beta-Catenin (Uniprot ID P35222) (Homo sapiens, UniProt P35222).
T2 construct: 10 nM full-length beta-Catenin (Uniprot ID P35222)
T2 sequence (P35222 1-781): T1 sequence (P35222 1-781)
The assay is described as follows: Fluorescence polarization IC50 (beta-catenin / 5FAM-TCF4 10-53 competition). It is filed as binding. The settings on record: fluorescence polarization; read-out: beta-Catenin FP IC50.

This note sets out measurements from patent publication US20240116985A1, “STAPLED PEPTIDES AND METHODS THEREOF” (priority 2020, published 2024).

`CC(=O)N1CCC[C@]12CC=CCCCC1(CCCC=CCCCOC(=O)N3CC[C@@](C(=O)N[C@@H](Cc4ccccc4)C(=O)N[C@@H](Cc4csc5ccccc45)C(=O)N[C@@H](CCCCN)C(N)=O)(C3)NC(=O)[C@H](CC(N)=O)NC(=O)[C@H](Cc3ccccc3)NC(=O)[C@H](C)NC(=O)[C@H](CCCCNC(C)C)NC(=O)[C@H](CCC(N)=O)NC(=O)[C@H](CC(=O)O)NC1=O)NC(=O)[C@H](CC1CCCCC1)NC(=O)[C@H](CC(N)=O)NC2=O` (stereo partly drawn) [I-2110, Ac-PL3-Asn-Cha-B5-Asp-Gln-iPrLys-Ala-Phe-Asn-PyrS2-Phe-BztA-Lys-NH2]: the concentration for half-maximal inhibition (IC50) (usually the concentration that gives 50% inhibition) is greater than 20000 nM in assay [1] and 88 nM in assay [2].

For `CC(=O)N1CCC[C@]12CC=CCCCC1(CCCC=CCCCOC(=O)N3CC[C@@](C(=O)N[C@@H](Cc4ccccc4)C(=O)N[C@@H](Cc4csc5ccccc45)C(=O)N[C@@H](CC(N)=O)C(N)=O)(C3)NC(=O)[C@H](CC(N)=O)NC(=O)[C@H](Cc3ccccc3)NC(=O)[C@H](C)NC(=O)[C@H](CCCCNC(C)C)NC(=O)[C@H](CCC(N)=O)NC(=O)[C@H](CC(=O)O)NC1=O)NC(=O)[C@H](CC1CCCCC1)NC(=O)[C@H](CC(N)=O)NC2=O` (stereo partly drawn) [I-2111, Ac-PL3-Asn-Cha-B5-Asp-Gln-iPrLys-Ala-Phe-Asn-PyrS2-Phe-BztA-Asn-NH2], the results for the IC50 in assay [1] and in assay [2] were greater than 20000 nM and 180 nM, respectively.

Take `CC(=O)N1CCC[C@]12CC=CCCCC1(CCCC=CCCCOC(=O)N3CC[C@@](C(=O)N[C@@H](Cc4ccsc4)C(=O)N[C@@H](Cc4csc5ccccc45)C(=O)N[C@@H](CCC(N)=O)C(N)=O)(C3)NC(=O)[C@H](CC(N)=O)NC(=O)[C@H](Cc3cccc(C(=O)O)c3)NC(=O)[C@H](C)NC(=O)[C@H](C)NC(=O)[C@H](CCc3ccc(O)cc3)NC(=O)[C@H](CC(=O)O)NC1=O)NC(=O)[C@H](CC(C)(C)C)NC(=O)[C@H](CC(=O)O)NC2=O` (stereo partly drawn) [I-2114, Ac-PL3-Asp-Npg-B5-Asp-hTyr-Ala-Ala-3COOHF-Asn-PyrS2-3Thi-BztA-Gln-NH2]: the IC50 in assay [1] is greater than 20000 nM; in assay [2], 32 nM.

For the compound `CC(=O)N1CCC[C@]12CC=CCCCC1(CCCC=CCCCOC(=O)N3CC[C@@](C(=O)N[C@@H](Cc4ccsc4)C(=O)N[C@@H](Cc4csc5ccccc45)C(=O)N[C@@H](CCC(N)=O)C(N)=O)(C3)NC(=O)[C@H](CC(N)=O)NC(=O)[C@H](Cc3cccc(C(=O)O)c3)NC(=O)[C@H](C)NC(=O)[C@H](C)NC(=O)[C@H](CCc3ccc(O)cc3)NC(=O)[C@H](CC(=O)O)NC1=O)NC(=O)[C@H](CC(C)(C)C)NC(=O)[C@H](CC(=O)O)NC2=O` (stereo partly drawn) [I-2115, Ac-PL3-Asp-Npg-B5-Asp-hTyr-Ala-Ala-3COOHF-Asn-PyrS2-3Thi-BztA-Gln-NH2], the IC50 in assay [1] was greater than 20000 nM; in assay [2], 29 nM.

Consider `CC(=O)N1CCC[C@]12CC=CCCCC1(CCCC=CCCCOC(=O)N3CC[C@@](C(=O)N[C@@H](Cc4ccsc4)C(=O)N[C@@H](Cc4csc5ccccc45)C(=O)N[C@@H](CCC(N)=O)C(N)=O)(C3)NC(=O)[C@H](CCO)NC(=O)[C@H](Cc3cccc(C(=O)O)c3)NC(=O)[C@H](C)NC(=O)[C@H](C)NC(=O)[C@H](CCc3ccc(O)cc3)NC(=O)[C@H](CC(=O)O)NC1=O)NC(=O)[C@H](CC(C)(C)C)NC(=O)[C@H](CC(=O)O)NC2=O` (stereo partly drawn) [I-2116, Ac-PL3-Asp-Npg-B5-Asp-hTyr-Ala-Ala-3COOHF-Hse-PyrS2-3Thi-BztA-Gln-NH2], for which the figures for the IC50 in assay [1] and in assay [2] were 33400 nM and 19 nM, respectively.

With `CC(=O)N1CCC[C@]12CC=CCCCC1(CCCC=CCCCOC(=O)N3CC[C@@](C(=O)N[C@@H](Cc4ccsc4)C(=O)N[C@@H](Cc4csc5ccccc45)C(=O)N[C@@H](CCC(N)=O)C(N)=O)(C3)NC(=O)[C@H](CCO)NC(=O)[C@H](Cc3cccc(C(=O)O)c3)NC(=O)[C@H](C)NC(=O)[C@H](C)NC(=O)[C@H](CCc3ccc(O)cc3)NC(=O)[C@H](CC(=O)O)NC1=O)NC(=O)[C@H](CC(C)(C)C)NC(=O)[C@H](CC(=O)O)NC2=O` (stereo partly drawn) [I-2117, Ac-PL3-Asp-Npg-B5-Asp-hTyr-Ala-Ala-3COOHF-Hse-PyrS2-3Thi-BztA-Gln-NH2], the IC50 is greater than 20000 nM in assay [1] and 19 nM in assay [2].

`CC(=O)N1CCC[C@]12CC=CCCCC1(CCCC=CCCCOC(=O)N3CC[C@@](C(=O)N[C@@H](Cc4ccsc4)C(=O)N[C@@H](Cc4csc5ccccc45)C(=O)N[C@@H](CCC(N)=O)C(N)=O)(C3)NC(=O)[C@H](CC(N)=O)NC(=O)[C@H](Cc3cccc(C(=O)O)c3)NC(=O)[C@H](C)NC(=O)[C@H](C)NC(=O)[C@H](Cc3c[nH]cn3)NC(=O)[C@H](CC(=O)O)NC1=O)NC(=O)[C@H](CC(C)(C)C)NC(=O)[C@H](CC(=O)O)NC2=O` (stereo partly drawn) [I-2118, Ac-PL3-Asp-Npg-B5-Asp-His-Ala-Ala-3COOHF-Asn-PyrS2-3Thi-BztA-Gln-NH2]: the IC50 was greater than 20000 nM in assay [1] and 21 nM in assay [2].

As to `CC(=O)N1CCC[C@]12CC=CCCCC1(CCCC=CCCCOC(=O)N3CC[C@@](C(=O)N[C@@H](Cc4ccsc4)C(=O)N[C@@H](Cc4csc5ccccc45)C(=O)N[C@@H](CCC(N)=O)C(N)=O)(C3)NC(=O)[C@H](CC(N)=O)NC(=O)[C@H](Cc3cccc(C(=O)O)c3)NC(=O)[C@H](C)NC(=O)[C@H](C)NC(=O)[C@H](Cc3c[nH]cn3)NC(=O)[C@H](CC(=O)O)NC1=O)NC(=O)[C@H](CC(C)(C)C)NC(=O)[C@H](CC(=O)O)NC2=O` (stereo partly drawn) [I-2119, Ac-PL3-Asp-Npg-B5-Asp-His-Ala-Ala-3COOHF-Asn-PyrS2-3Thi-BztA-Gln-NH2], the IC50 is greater than 20000 nM in assay [1] and 29 nM in assay [2].

For the compound `CC(=O)N1CCC[C@]12CC=CCCCC1(CCCC=CCCCOC(=O)N3CC[C@@](C(=O)N[C@@H](Cc4ccsc4)C(=O)N[C@@H](Cc4csc5ccccc45)C(=O)N[C@@H](CCC(N)=O)C(N)=O)(C3)NC(=O)[C@H](CCO)NC(=O)[C@H](Cc3cccc(C(=O)O)c3)NC(=O)[C@H](C)NC(=O)[C@H](C)NC(=O)[C@H](Cc3c[nH]cn3)NC(=O)[C@H](CC(=O)O)NC1=O)NC(=O)[C@H](CC(C)(C)C)NC(=O)[C@H](CC(=O)O)NC2=O` (stereo partly drawn) [I-2120, Ac-PL3-Asp-Npg-B5-Asp-His-Ala-Ala-3COOHF-Hse-PyrS2-3Thi-BztA-Gln-NH2], the values for the IC50 in assay [1] and in assay [2] were 37200 nM and 11 nM, respectively.

Consider `CC(=O)N1CCC[C@]12CC=CCCCC1(CCCC=CCCCOC(=O)N3CC[C@@](C(=O)N[C@@H](Cc4ccsc4)C(=O)N[C@@H](Cc4csc5ccccc45)C(=O)N[C@@H](CCC(N)=O)C(N)=O)(C3)NC(=O)[C@H](CCO)NC(=O)[C@H](Cc3cccc(C(=O)O)c3)NC(=O)[C@H](C)NC(=O)[C@H](C)NC(=O)[C@H](Cc3c[nH]cn3)NC(=O)[C@H](CC(=O)O)NC1=O)NC(=O)[C@H](CC(C)(C)C)NC(=O)[C@H](CC(=O)O)NC2=O` (stereo partly drawn) [I-2121, Ac-PL3-Asp-Npg-B5-Asp-His-Ala-Ala-3COOHF-Hse-PyrS2-3Thi-BztA-Gln-NH2], for which the results for the IC50 in assay [1] and in assay [2] were greater than 20000 nM and 12 nM, respectively.

Regarding `CC(=O)N1CCC[C@]12CC=CCCCC1(CCCC=CCCCOC(=O)N3CC[C@@](C(=O)N[C@@H](Cc4ccsc4)C(=O)N[C@@H](Cc4csc5ccccc45)C(=O)N[C@@H](CCC(N)=O)C(N)=O)(C3)NC(=O)[C@H](CC(C)C)NC(=O)[C@H](Cc3cccc(C(=O)O)c3)NC(=O)[C@H](C)NC(=O)[C@H](C)NC(=O)[C@H](Cc3c[nH]cn3)NC(=O)[C@H](CC(=O)O)NC1=O)NC(=O)[C@H](CC(C)(C)C)NC(=O)[C@H](CC(=O)O)NC2=O` (stereo partly drawn) [I-2122, Ac-PL3-Asp-Npg-B5-Asp-His-Ala-Ala-3COOHF-Leu-PyrS2-3Thi-BztA-Gln-NH2], the IC50 in assay [1] worked out at 34400 nM; in assay [2], 12 nM.

Turning to `CC(=O)N1CCC[C@]12CC=CCCCC1(CCCC=CCCCOC(=O)N3CC[C@@](C(=O)N[C@@H](Cc4ccsc4)C(=O)N[C@@H](Cc4csc5ccccc45)C(=O)N[C@@H](CCC(N)=O)C(N)=O)(C3)NC(=O)[C@H](CC(C)C)NC(=O)[C@H](Cc3cccc(C(=O)O)c3)NC(=O)[C@H](C)NC(=O)[C@H](C)NC(=O)[C@H](Cc3c[nH]cn3)NC(=O)[C@H](CC(=O)O)NC1=O)NC(=O)[C@H](CC(C)(C)C)NC(=O)[C@H](CC(=O)O)NC2=O` (stereo partly drawn) [I-2123, Ac-PL3-Asp-Npg-B5-Asp-His-Ala-Ala-3COOHF-Leu-PyrS2-3Thi-BztA-Gln-NH2], the IC50 in assay [1] stood at 26900 nM; in assay [2] it was 12 nM.

Take `CC(=O)N1CCC[C@]12CC=CCCCC1(CCCC=CCCCOC(=O)N3CC[C@@](C(=O)N[C@@H](Cc4ccsc4)C(=O)N[C@@H](Cc4csc5ccccc45)C(=O)N[C@@H](CCC(N)=O)C(N)=O)(C3)NC(=O)[C@H](CC(C)C)NC(=O)[C@H](Cc3cccc(C(=O)O)c3)NC(=O)[C@H](C)NC(=O)[C@H](C)NC(=O)[C@H](Cc3ccc(O)cc3)NC(=O)[C@H](CC(=O)O)NC1=O)NC(=O)[C@H](CC(C)(C)C)NC(=O)[C@H](CC(=O)O)NC2=O` (stereo partly drawn) [I-2126, Ac-PL3-Asp-Npg-B5-Asp-Tyr-Ala-Ala-3COOHF-Leu-PyrS2-3Thi-BztA-Gln-NH2]: the IC50 in assay [1] is 29500 nM; in assay [2], 68 nM.
